Measurements as given in patent publication EP4257133A1, “OXO-AZAHETEROCYCLIC DERIVATIVES FOR USE IN THE TREATMENT OF MALARIA” (Institut Pasteur, priority 2022, dated 2023).
Like-named read-outs stand apart in the source and are kept apart here.

Assays:
3815 strain [1] = assay: Ring stage survival assay (RSA); assay type: cell-based, P. falciparum; conditions: mean ± SD of three experiments
From the text: (§1) In early and late trophozoites, multiple PRDX6 foci (white arrow heads) were observed adjacent to the parasite FV. DNA, Hoechst 33342 (nuclei). Scale bars: 5 µm. (B-F) Immuno-transmission electron microscopy (TEM) using monoclonal mouse anti-PRDX6 antibody. (B) Uninfected RBC showing even cytosolic staining for PRDX6. (C-F) P. falciparum-infected RBCs show co-localization of PRDX6 and hemoglobin in vesicles at the inner surface of the parasite plasma membrane in structures that resemble cytostomes (black arrows), at the FV (white arrows), or within the parasite cytosol (striped grey arrow). Scale bars: 500 nm. […] Parasites were treated at ring stage and growth to schizont stage in the same cycle ("progression") or to next generation rings ("growth") was scored by flow cytometry using DNA intercalating fluorescent dye SYBR Green I. • Figure 3 concerns the radioactive PLA2 activity assay using phosphorylated recombinant human PRDX6 in presence or absence of Darapladib. Darapladib inhibits PLA2 activity of PRDX6 with IC50 of ≈0.5µM. • Figure 4 is related to the co-treatment of ART-resistant parasites with artemisinin and Darapladib synergistically reduces parasite survival. (A) Ring stage survival assays (RSA) (Witkowski et al., Lancet Infect. Dis. 13, 1043-1049 (2013)) with Darapladib (Dar) and Dihydroartemisinin (DHA) against ART-resistant P. falciparum strains. For detailed data regarding synergism, cf. Table 1. (B) Growth/Progression assay with continuous Darapladib treatment against ART-resistant P. falciparum strains. Data are means ± SD of three independent experiments, unpaired t-tests. […] The thermal shift of the melting temperature of PRDX6 in presence of Darapladib was determined using a SYPRO orange-based differential scanning fluorimetry (DSF) assay. ΔTm > 0.5°C was considered significant. Incubation with 25µM Darapladib decreased the Tm of PRDX6 by 1.1 ± 0.2 °C.
(§2) It has been investigated whether co-treatment with Darapladib and ART could restore ART-susceptibility in the ring stage survival assay (RSA).
(§3) The survival rate for treatment with 1 µM Darapladib alone and 700 nM DHA alone was multiplied to calculate a theoretical survival rate if the effect of the combination was additive ("Calc. Additive"). The experimentally measured survival rate ("Measured") was divided by the calculated theoretical additive survival rate for the co-treatment. A ratio < 1 for Measured/Calc. indicates synergism, a ratio = 1 indicates an additive effect and a ratio > 1 indicates an antagonistic effect. Data are means ± SD of six independent experiments for NF54 C580Y and three independent experiments for 3815, unpaired t-test.

NF54 Kelch13^C580Y [2] = assay: Ring stage survival assay (RSA); assay type: cell-based, P. falciparum; conditions: mean ± SD of six experiments
From the text: as §1, §2, §3

PRDX6 [3] = molecular target: T1, PRDX6 (Homo sapiens, UniProt P30041); assay: Activity-based protein profiling (ABPP), competition with the probe TAMRA-FP; assay type: binding; conditions: fluorescent labelling of PRDX6
T1 sequence (P30041 1-224): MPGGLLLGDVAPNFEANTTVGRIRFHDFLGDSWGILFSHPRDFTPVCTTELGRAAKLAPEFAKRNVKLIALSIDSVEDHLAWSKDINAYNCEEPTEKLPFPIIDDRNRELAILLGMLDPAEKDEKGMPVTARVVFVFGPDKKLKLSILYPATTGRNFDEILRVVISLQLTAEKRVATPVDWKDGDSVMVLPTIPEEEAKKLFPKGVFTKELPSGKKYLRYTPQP
From the text: Darapladib has been assessed for the binding to the PLA2 active site of PRDX6 by activity-based protein profiling (ABPP) using recombinant human PRDX6 and the fluorescently tagged probe TAMRA-FP that covalently labels the serine in the PLA2 active site of PRDX6.

P. falciparum 3D7 = assay: Blood stage progression and growth assay, flow cytometry with SYBR Green I; assay type: cell-based; conditions: for IC50: Plasmodium falciparum, 3D7, n = 3 in triplicates
From the text: as §1, with “1.” for “1. (B) Growth/Progression assay with continuous Darapladib treatment against ART-resistant P. falciparum strains. Data are means ± SD of three independent experiments, unpaired t-tests.”, “Incubation with 25µM Darapladib decreased the Tm of PRDX6 by 1.1 ± 0.2 °C.” left out
Darapladib was also tested in vitro for its ability to block P. falciparum blood stage growth and progression from rings to schizonts. Synchronous P. falciparum 3D7 cultures were treated at the ring stage and effects on ring to schizont development ("progression") and multiplication following completion of a full blood stage cycle ("growth") were assessed by flow cytometry using the DNA intercalating fluorescent dye SYBR Green I. […]

[4] = molecular target: T2, phosphorylated recombinant human PRDX6 (Homo sapiens, UniProt P30041); assay: Radioactive PLA2 activity assay; assay type: biochemical; conditions: read-out: IC50 of inhibition of PLA2 activity of PRDX6
T2 sequence (P30041 1-224): T1 sequence (P30041 1-224)
From the text: as §1, with “survival.” for “survival. (A) Ring stage survival assays (RSA) (Witkowski et al., Lancet Infect. Dis. 13, 1043-1049 (2013)) with Darapladib (Dar) and Dihydroartemisinin (DHA) against ART-resistant P. falciparum strains. For detailed data regarding synergism, cf. Table 1. (B) Growth/Progression assay with continuous Darapladib treatment against ART-resistant P. falciparum strains. Data are means ± SD of three independent experiments, unpaired t-tests.”, “Incubation with 25µM Darapladib decreased the Tm of PRDX6 by 1.1 ± 0.2 °C.” left out

3815 strain [5] = assay: Growth/Progression assay with continuous treatment; assay type: cell-based, P. falciparum; conditions: continuous treatment during the complete blood stage cycle
From the text: as §1, with “survival.” for “survival. (A) Ring stage survival assays (RSA) (Witkowski et al., Lancet Infect. Dis. 13, 1043-1049 (2013)) with Darapladib (Dar) and Dihydroartemisinin (DHA) against ART-resistant P. falciparum strains. For detailed data regarding synergism, cf. Table 1. (B) Growth/Progression assay with continuous Darapladib treatment against ART-resistant P. falciparum strains. Data are means ± SD of three independent experiments, unpaired t-tests.”, “Incubation with 25µM Darapladib decreased the Tm of PRDX6 by 1.1 ± 0.2 °C.” left out

NF54 Kelch13^C580Y [6] = assay: Growth/Progression assay with continuous treatment; assay type: cell-based, P. falciparum; conditions: continuous treatment during the complete blood stage cycle
From the text: as §1, with “survival.” for “survival. (A) Ring stage survival assays (RSA) (Witkowski et al., Lancet Infect. Dis. 13, 1043-1049 (2013)) with Darapladib (Dar) and Dihydroartemisinin (DHA) against ART-resistant P. falciparum strains. For detailed data regarding synergism, cf. Table 1. (B) Growth/Progression assay with continuous Darapladib treatment against ART-resistant P. falciparum strains. Data are means ± SD of three independent experiments, unpaired t-tests.”, “Incubation with 25µM Darapladib decreased the Tm of PRDX6 by 1.1 ± 0.2 °C.” left out

PRDX6 [7] = molecular target: T1, PRDX6; assay: ITDR-CETSA (IsoThermal Dose Response-Cellular Thermal Shift Assay); assay type: cell-based; design: endogenous in cells; inferred to be P. falciparum-infected human red blood cells, because host and parasite proteins were profiled together; conditions: host and parasite proteins
PRDX6 [8] = molecular target: T1, PRDX6; assay: SYPRO orange-based differential scanning fluorimetry (DSF) assay; assay type: binding; design: endogenous in cells; inferred to be P. falciparum-infected human red blood cells, because host and parasite proteins were profiled together; conditions: incubation with 25µM; ΔTm > 0.5°C considered significant
From the text: In early and late trophozoites, multiple PRDX6 foci (white arrow heads) were observed adjacent to the parasite FV. DNA, Hoechst 33342 (nuclei). Scale bars: 5 µm. (B-F) Immuno-transmission electron microscopy (TEM) using monoclonal mouse anti-PRDX6 antibody. (B) Uninfected RBC showing even cytosolic staining for PRDX6. (C-F) P. falciparum-infected RBCs show co-localization of PRDX6 and hemoglobin in vesicles at the inner surface of the parasite plasma membrane in structures that resemble cytostomes (black arrows), at the FV (white arrows), or within the parasite cytosol (striped grey arrow). Scale bars: 500 nm. […] Parasites were treated at ring stage and growth to schizont stage in the same cycle ("progression") or to next generation rings ("growth") was scored by flow cytometry using DNA intercalating fluorescent dye SYBR Green I. • Figure 3 concerns the radioactive PLA2 activity assay using phosphorylated recombinant human PRDX6 in presence or absence of Darapladib. […] The thermal shift of the melting temperature of PRDX6 in presence of Darapladib was determined using a SYPRO orange-based differential scanning fluorimetry (DSF) assay. ΔTm > 0.5°C was considered significant. […]
Binding of the compounds of the invention to PRDX6 induces a significant shift in the melting temperature of PRDX6 which can be detected using the hydrophobic fluorescent dye SYPRO orange (Figure 5). […]

Compound | Parasite survival, Drugs Alone, DHA (3815 strain [1]; 3815, 700 nM DHA alone) | Parasite survival, Drugs Alone, DHA (NF54 Kelch13^C580Y [2]; 700 nM DHA alone) | binding to the PLA2 active site of PRDX6 (PRDX6 [3]) | parasite development (P. falciparum 3D7; 3D7 cultures treated at the ring stage) | IC50 (P. falciparum 3D7; ring stage to schizont, read-out: IC50 for parasite progression) | IC50 (P. falciparum 3D7; whole cycle, ring to ring, read-out: IC50 for parasite growth) | IC50 [4] | Parasite survival, Drugs Alone, Dar 1µM (3815 strain [1]; 3815, 1 µM Darapladib alone) | Parasite survival, Drugs Alone, Dar 1µM (NF54 Kelch13^C580Y [2]; 1 µM Darapladib alone) | blood stage growth (3815 strain [5]) | blood stage growth (NF54 Kelch13^C580Y [6]) | specificity for PRDX6 (PRDX6 [7]) | decrease of the Tm of PRDX6 (PRDX6 [8])
C[C@H]1[C@@H](O)O[C@@H]2O[C@@]3(C)CC[C@H]4[C@H](C)CC[C@@H]1[C@@]24OO3 [DHA, Dihydroartemisinin] | 7.1 ± 0.9% | 7.9 ± 1.7% | – | – | – | – | – | – | – | – | – | – | –
CCN(CC)CCN(Cc1ccc(-c2ccc(C(F)(F)F)cc2)cc1)C(=O)Cn1c(SCc2ccc(F)cc2)nc(=O)c2c1CCC2 [Darapladib] | – | – | bound the PLA2 active site of PRDX6, competed with TAMRA-FP and reduced the fluorescent labelling of PRDX6 | arrested parasite development at the trophozoite stage | 560 nM | 760 nM | ~500 nM | 94.7 ± 3.2% | 89.0 ± 8.1% | effectively blocked blood stage growth | effectively blocked blood stage growth | no other essential host or parasite protein is targeted | 1.1 ± 0.2 °C
